Experimental data reported in patent US8278312B2, “Imidazo 1,2-a pyrimidine derivatives for the treatment of diseases such as diabetes” (Merck Patent Gesellschaft mit Beschränkter Haftung, priority 2007, dated 2012).

What was measured:
[1] = target: T1, SGLT1 (Homo sapiens, UniProt P13866); experiment: 14C-AMG uptake in BHK cells transfected with SGLT1 (96-well cell-based assay); conditions: 50 μM AMG, 37° C., 90 min
T1 construct: expressed in transfected cells
T1 sequence (P13866 1-664): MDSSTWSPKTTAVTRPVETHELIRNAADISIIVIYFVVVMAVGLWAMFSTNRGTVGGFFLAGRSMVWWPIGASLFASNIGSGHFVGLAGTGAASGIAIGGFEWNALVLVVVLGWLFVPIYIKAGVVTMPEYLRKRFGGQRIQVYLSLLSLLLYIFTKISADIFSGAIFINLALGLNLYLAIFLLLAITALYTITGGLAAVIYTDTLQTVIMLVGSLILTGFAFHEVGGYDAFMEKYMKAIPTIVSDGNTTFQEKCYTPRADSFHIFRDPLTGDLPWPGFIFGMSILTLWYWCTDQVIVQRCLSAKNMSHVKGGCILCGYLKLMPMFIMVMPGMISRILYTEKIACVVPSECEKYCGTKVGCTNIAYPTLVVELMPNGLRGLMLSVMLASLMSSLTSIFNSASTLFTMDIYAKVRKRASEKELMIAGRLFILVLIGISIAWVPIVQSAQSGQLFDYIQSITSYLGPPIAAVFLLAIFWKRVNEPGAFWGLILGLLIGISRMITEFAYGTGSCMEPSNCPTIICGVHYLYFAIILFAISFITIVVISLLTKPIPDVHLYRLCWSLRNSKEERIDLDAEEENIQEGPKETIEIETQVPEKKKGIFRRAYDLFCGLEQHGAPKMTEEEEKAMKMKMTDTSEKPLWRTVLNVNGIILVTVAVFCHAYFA
Excerpt: (§1) The compounds can be tested for their SGLT inhibition properties by means of BHK cells expressing SGLT1 and SGLT2. The production of the cells and the testing can be carried out as described below.
To construct the SGLT1 expression vector (KL225), the SLC5A1 gene (homologous to NM_000343) was amplified from a cDNA library using standard PCR technology and cloned over NheI/XhoI sites into the pcDNA3.1 expression vector (Invitrogen) containing neomycin as a selection marker. In this vector, transcription uses the enhancer/promoter of human cytomegalovirus.
(§2) The final vector KL225 together with an additional vector containing a dihydrofolate reductase gene as a selection marker was introduced into cells. Transfection into BHK21 cells (ATCC CCL-10), cultivated in DMEM medium (GIBCO/BRL), supplemented with 10% foetal calf serum (FCS) and 20 mM glutamine, was carried out using calcium phosphate transfections according to Graham, F. L. and van der Ebb, A. J. (1973), Virology 52: 456 with 5-20 μg of uncut plasmids for 10^7 cells. Stable transfectants were selected in medium containing 1 mg/ml of G418 (GIBCO/BRL) and 20-5000 nM methotrexate as final concentration, where only cells which expressed the neomycin gene and overexpressed the dhfr gene were able to grow. After growth for 2-3 weeks, the cells were cloned (0.5 cells/well) and the clones were investigated for SGLT expression in radioactivity uptake tests. […]
(§3) A 96-well cell-based assay was developed and adapted to HTS requirements:
(§4) BHK cells (transfected with SGLT1 or SGLT2) were seeded into 96-well microtitre plates (Cultureplates, Perkin Elmer). After at least 24 h, medium was removed, and the cell layer was washed with assay buffer (140 mM NaCl, 2 mM KCl, 1 mM CaCl2, 1 mM MgCl2, 10 mM HEPES, 5 mM Tris, adjusted to pH 7.4 using 1 M KOH). After addition of 40 μl of assay buffer, 50 μl of AMG (50 μM for SGLT1 and 2 mM for SGLT2) in the presence or absence of compounds, the cells were incubated in a total volume of 100 μl at 37° C. for 90 min. Supernatant was removed by suction and discarded. Cells were washed and lysed by addition of 50 μl of water. After 10 min at room temperature, 200 μl of Micrsoscint 40 (Perkin Elmer) were added. The radioactivity was counted in a Topcount microplate scintillation counter (Perkin Elmer). The non-specific uptake was determined in sodium-free assay buffer (266 mM sucrose, 2 mM KCl, 1 mM CaCl2, 1 mM MgCl2, 10 mM HEPES, 5 mM Tris, adjusted to pH 7.4 using 1 M KOH).

[2] = target: T2, SGLT2 (Homo sapiens, UniProt P31639); experiment: 14C-AMG uptake in BHK cells transfected with SGLT2 (96-well cell-based assay); conditions: 2 mM AMG, 37° C., 90 min
T2 construct: expressed in transfected cells
T2 sequence (P31639 1-672): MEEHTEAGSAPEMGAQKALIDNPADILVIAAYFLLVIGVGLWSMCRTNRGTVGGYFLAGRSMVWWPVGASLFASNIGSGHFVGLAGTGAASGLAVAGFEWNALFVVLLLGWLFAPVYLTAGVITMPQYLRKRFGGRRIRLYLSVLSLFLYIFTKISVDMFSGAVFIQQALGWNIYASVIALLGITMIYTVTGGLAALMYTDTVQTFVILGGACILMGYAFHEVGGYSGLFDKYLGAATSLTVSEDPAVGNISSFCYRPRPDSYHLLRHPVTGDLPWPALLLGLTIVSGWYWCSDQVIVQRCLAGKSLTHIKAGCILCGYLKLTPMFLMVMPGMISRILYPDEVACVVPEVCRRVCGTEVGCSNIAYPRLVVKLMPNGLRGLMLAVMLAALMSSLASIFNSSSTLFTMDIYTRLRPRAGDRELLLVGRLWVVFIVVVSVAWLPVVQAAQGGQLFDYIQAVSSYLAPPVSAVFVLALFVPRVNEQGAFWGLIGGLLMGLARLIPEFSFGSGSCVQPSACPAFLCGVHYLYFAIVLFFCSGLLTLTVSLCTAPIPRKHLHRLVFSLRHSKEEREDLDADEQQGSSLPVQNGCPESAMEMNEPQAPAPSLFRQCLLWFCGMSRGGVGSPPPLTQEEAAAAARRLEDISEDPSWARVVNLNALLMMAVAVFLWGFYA
Excerpt: as §1
To construct the SGLT2 expression vector (KL224), the SLC5A2 gene (homologous to NM_003041) was amplified from a cDNA library using standard PCR technology and cloned over NheI/XhoI sites into PCI-neo expression vector (Promega) containing neomycin as a selection marker. In this vector, transcription uses the enhancer/promoter of human cytomegalovirus and the SV40 polyadenylation signal.
as §2, with “KL224” for “KL225”
as §3, §4

Compound	IC50 [1] [nM]	IC50 [2] [nM]
CCNC(=O)c1cc(OC)cc(OC)c1-c1nc2ncccn2c1Nc1c(Cl)ccc(C)c1Cl [Compound A24, 2-[3-(2,6-dichloro-3-methylphenylamino)imidazo[1,2-a]-pyrimidin-2-yl]-N-ethyl-3,5-dimethoxybenzamide]	10 to 1000	10 to 1000
CCc1cccc(OCC(N)=O)c1-c1nc2ncccn2c1Nc1c(Cl)cccc1Cl [Compound A7]	1000 to 10000	10 to 1000
CNc1nnc(-c2cccc(F)c2-c2nc3ncccn3c2Nc2c(C)cccc2Cl)o1 [Compound A26, (2-Chloro-6-methylphenyl)-{2-[2-fluoro-6-(5-methylamino-1,3,4-oxadiazol-2-yl)-phenyl]imidazo[1,2-a]pyrimidin-3-yl}-amine]	1000 to 10000	10 to 1000
CNc1nnc(-c2cc(OC)cc(OC)c2-c2nc3ncccn3c2Nc2c(Cl)cccc2Cl)o1 [Compound A3, (2,6-dichlorophenyl)-{2-[2,4-dimethoxy-6-(5-methylamino-1,3,4-oxadiazol-2-yl)phenyl]imidazo[1,2-a]pyrimidin-3-yl}amine]	10 to 1000	10 to 1000
CCc1cccc(OCC(N)=O)c1-c1nc2ncccn2c1Nc1c(C)cccc1C [Compound A8, 2-{2-[3-(2,6-dimethylphenylamino)imidazo[1,2-a]-pyrimidin-2-yl]-3-ethylphenoxy}acetamide]	1000 to 10000	1000 to 10000
CCNc1nnc(-c2ccccc2-c2nc3ncccn3c2Nc2c(Cl)cccc2Cl)o1 [Compound A15, (2,6-Dichlorophenyl)-{2-[2-(5-ethylamino-1,3,4-oxadiazol-2-yl)phenyl]imidazo-[1,2-a]pyrimidin-3-yl}amine]	1000 to 10000	10 to 1000
CNc1nnc(-c2cc(OC)cc(OC)c2-c2nc3ncccn3c2Nc2c(Cl)cc(F)cc2Cl)o1 [Compound A4, (2,6-Dichloro-4-fluorophenyl)-{2-[2,4-dimethoxy-6-(5-methylamino-1,3,4-oxadiazol-2-yl)phenyl]imidazo[1,2-a]-pyrimidin-3-yl}amine]	10 to 1000	10 to 1000
Cc1cccc(C)c1Nc1c(-c2ccccc2OCC(N)=O)nc2ncccn12 [Compound A1, 2-{2-[3-(2,6-Dimethylphenylamino)-imidazo[1,2-a]pyrimidin-2-yl]phenoxy}-acetamide]	> 10000	1000 to 10000

More lines, now with the values ahead:

IC50 [1] [nM]	IC50 [2] [nM]	Compound
> 10000	1000 to 10000	COc1cc(OC)c(-c2nc3ncccn3c2Nc2c(Cl)cccc2Cl)c(C(=O)NN)c1 [Compound A18, 2-[3-(2,6-dichlorophenylamino)imidazo[1,2-a]pyrimidin-2-yl]-3,5-dimethoxybenzohydrazide]
> 10000	10 to 1000	CCc1cc(OC)cc(OCC(N)=O)c1-c1nc2ncccn2c1Nc1c(C)cccc1C [Compound A9]
1000 to 10000	10 to 1000	CNc1nnc(-c2cccc(Cl)c2-c2nc3ncccn3c2Nc2c(C)cccc2C)o1 [Compound A19, {2-[2-Chloro-6-(5-methylamino-1,3,4-oxadiazol-2-yl)phenyl]imidazo[1,2-a]-pyrimidin-3-yl}-(2,6-dimethylphenyl)amine]
> 10000	> 10000	Cc1cc(C)n2c(Nc3c(C)cccc3C)c(-c3ccccc3OCC(N)=O)nc2n1 [Compound A2]
> 10000	1000 to 10000	COc1cc(OC)c(-c2nc3ncccn3c2Nc2c(Cl)cccc2Cl)c(-c2n[nH]c(=O)o2)c1 [Compound A6, 5-{2-[3-(2,6-dichlorophenylamino)imidazo[1,2-a]-pyrimidin-2-yl]-3,5-dimethoxyphenyl}-3H-1,3,4-oxadiazol-2-one]
10 to 1000	10 to 1000	CNc1nnc(-c2cccc(Cl)c2-c2nc3ncccn3c2Nc2c(C)cccc2Cl)o1 [Compound A22, {2-[2-Chloro-6-(5-methylamino-1,3,4-oxadiazol-2-yl)phenyl]imidazo[1,2-a]-pyrimidin-3-yl}-(2-chloro-6-methylphenyl)-amine]
1000 to 10000	10 to 1000	CNc1nnc(-c2cccc(F)c2-c2nc3ncccn3c2Nc2c(C)cc(F)cc2C)o1 [Compound A27, (4-Fluoro-2,6-dimethylphenyl)-{2-[2-fluoro-6-(5-methylamino-1,3,4-oxadiazol-2-yl)phenyl]imidazo[1,2-a]pyrimidin-3-yl}-amine]
> 10000	10 to 1000	CNc1nnc(-c2cc(OC)ccc2-c2nc3ncccn3c2Nc2c(C)cccc2C)o1 [Compound A21, (2,6-Dimethylphenyl)-{2-[4-methoxy-2-(5-methylamino-1,3,4-oxadiazol-2-yl)-phenyl]imidazo[1,2-a]pyrimidin-3-yl}-amine]
> 10000	10 to 1000	CCc1cc(OC)cc(OCC(N)=O)c1-c1nc2ncccn2c1Nc1c(Cl)cccc1Cl [Compound A12, 2-{2-[3-(2,6-Dichlorophenylamino)-imidazo[1,2-a]pyrimidin-2-yl]-3-ethyl-5-methoxyphenoxy}acetamide]
1000 to 10000	10 to 1000	CNc1nnc(-c2cc(OC)cc(OC)c2-c2nc3ncccn3c2Nc2c(C)cccc2C)o1 [Compound A11, {2-[2,4-Dimethoxy-6-(5-methylamino-1,3,4-oxadiazol-2-yl)phenyl]imidazo-[1,2-a]pyrimidin-3-yl}-(2,6-dimethyl-phenyl)amine]
> 10000	1000 to 10000	COc1cc(C(N)=O)c(-c2nc3ncccn3c2Nc2c(Cl)cccc2Cl)c(OC)c1OC [Compound A17, 2-[3-(2,6-dichlorophenylamino)imidazo[1,2-a]pyrimidin-2-yl]-3,5,4-trimethoxybenzamide]
